Measurements published in patent publication US6242481A, “Methods for the inhibition of angiogenesis with arglabin” (priority 1999, dated 2001).
In brackets after ≈: the same amount, converted by molar mass.

Assays:
[1] = tested on: cells; settings: cited from earlier work
[2] = tested on: tumor growth and metastases; settings: cited from earlier work
[3] = tested on: vascular endothelial cell; settings: cited from earlier work
[4] = assay type: in vivo; settings: mice; Table 1
Text: (§1) The neovascularization experiment described in Example 2 was repeated using the corneal micropockets in mice. The compounds tested were cytochalasin E, astaphiatin, arglabin, epoxycytochalasin-H, ozonolyzed cytochalasin-E, and precursor cytochalasin-E. The results of these compound's ability to inhibit angiogenesis are shown in Table 1.

[5] = tested on: corneal neovascularization (corneal micropockets); experiment: neovascularization experiment using corneal micropockets in mice; assay type: in vivo; settings: mouse corneal micropockets; Table 1
Method: (§2) Pellets for implantation into rabbit corneas were made by mixing 110 μl of saline containing 12 μg of recombinant bFGF (Takeda Pharmaceuticals-Japan) with 40 mg of sucralfate (Bukh Meditec-Denmark); this suspension was added to 80 μl of 12% hydron (Interferon Sciences) in ethanol. 10 μl aliquots of this mixture was then pipetted onto teflon pegs and allowed to dry producing approximately 17 pellets. A pellet was implanted into corneal micropockets of each eye of an anesthetized female New Zealand white rabbit, 2 mm from the limbus followed by topical application of erythromycin ointment onto the surface of the cornea. The animals were fed daily from 2 days post-implantation by gastric lavage with cytochalasin E or the aldehyde methyl ester derivative of cytochalasin E suspended in 0.5% carboxymethyl cellulose or 0.5% carboxymethyl cellulose alone. The animals were examined with a slit lamp every other day in a masked manner by the same corneal specialist. The area of corneal neovascularization was determined by measuring with a reticule the vessel length (L) from the limbus and the number of clock hours (C) of limbus involved. A formula was used to determine the area of a circular band segment: C/12*3.1416 [r^2 -(r-L)^2 ] where r=6 mm the measured radius of the rabbit cornea.
as §1

[6] = tested on: Bovine capillary endothelial (BCE) cells; experiment: inhibition of bovine capillary endothelial cell proliferation (BCE), compared to NIH3T3 fibroblasts; assay type: cell-based; settings: for less active (inhibition of endothelial cell proliferation): relative to cytochalasin E
Method: (§3) Bovine capillary endothelial (BCE) cells and Swiss mouse embryo fibroblast cells (NIH3T3) were isolated as previously described (Folkman, , et al., Proc. Nat. Acad. Sci USA., 76:5217-21(1979)) and maintained in DMEM supplemented with 10% heat-inactivated bovine calf serum (BCS), antibiotics, and 3 ng/ml recombinant human bFGF (Scios Nova, Mountainview,Calif.). Monolayers of the cells growing in 6-well plates were dispersed in a 0.05% trypsin solution. The cells were re-suspended with DMEM containing 10% BCS. Approximately 12,500 cells in 0.5 ml were added to each well of gelatinized 24-well tissue culture plates and incubated at 37° C. (in 10% CO2) for 24 hours. The medium was replaced with […] of fresh DMEM containing 5% BCS. Samples of cytochalasin E, cytochalasin A, and cytochalasin H were added to each well in triplicate. After 30 minutes of incubation, bFGF was added to a final concentration of 1 ng/ml. After 72 hours of incubation, cells were trypsinized, re-suspended in Hematall (Fisher Scientific, Pittsburg, Pa.) and counted with a Coulter counter.
FIG. 2 is a graph showing the inhibition of bovine capillary endothelial cell proliferation (BCE) (squares) compared to Swiss mouse embryo fibroblast cells (NIH3T3). […] The ordinate measures drug concentration in grams per milliliter.

[7] = tested on: Lewis lung carcinoma; experiment: Lewis lung experiment, inhibition of tumor growth (Example 6); assay type: in vivo, mice (C57BI6/J); settings: 2.0 mg/kg qd (printed 'od' for methanolyzed compound)
Method: (§4) Syngeneic C57BI6/J six-week-old male mice were injected (subcutaneous dorsum) with 1×10^6 tumor cells. Visible tumors first appeared after 3-4 days. When tumors were approximately 1500 mm^3 in size, mice were randomized into two groups. The primary tumor was completely excised in the first group and left intact in the second group after a sham operation. Although tumors from 500 mm^3 to 3000 mm^3 inhibited growth of metastases, 1500 mm^3 was the largest primary tumor that could be safely resected with high survival and no local recurrence.
The Lewis lung experiment of Example 5 was repeated using cytochalasin E and methanolyzed cytochalasin E. The results of this experiment are presented in the table below.

[8] = tested on: basic fibroblast growth factor (bFGF) driven corneal neovascularization; experiment: rabbit cornea assay, bFGF driven corneal neovascularization; assay type: in vivo, rabbit (New Zealand white); settings: 2 mg/kg/day, text says subcutaneously administered (method: gastric lavage)
Method: as §2

[9] = tested on: Lewis lung carcinoma; experiment: Lewis lung carcinoma tumor growth (Example 5); assay type: in vivo, mice (C57BI6/J); settings: 2 mg/kg/day
Method: as §4
This experimental model gave reproducible data and the experiment described is reproducible. This tumor is labeled "Lewis lung carcinoma--low metastatic" (LLC-Low).

[10] = tested on: cells; settings: cited from earlier work; remark: listed apart in the source
[11] = tested on: Bovine capillary endothelial (BCE) cells; experiment: inhibition of bovine capillary endothelial cell proliferation (BCE), cytochalasin E vs epoxycytochalasin J; assay type: cell-based; settings: compared with cytochalasin E; FIG. 3
Method: as §3, with “(BCE)” for “(BCE) cells and Swiss mouse embryo fibroblast cells (NIH3T3)”, “76:5217-21 (1979))” for “76:5217-21(1979))”, “Mountainview, Calif.).” for “Mountainview,Calif.).”, “E” for “E, cytochalasin A,”, “epoxycytochalasin J” for “cytochalasin H”
The ordinate measures drug concentration in grams per milliliter.

[12] = tested on: tumors cells; settings: cited from earlier work
[13] = tested on: tumor-induced angiogenesis in mouse dermis; settings: cited from earlier work

In the case of `C=C1C(C)C2C(Cc3ccccc3)NC(=O)C23OC(=O)/C=C/C(O)CCCC(C)C/C=C/C3C1O` (single isomer, unassigned) [cytochalasin B], the “changes in cell structure” value [1] is given as “a number of morphological changes in cell structure”.

For `CO[C@@H]1[C@H](OC(=O)NC(=O)CCl)CC[C@]2(CO2)[C@H]1[C@@]1(C)O[C@@H]1CC=C(C)C` [AGM-1470], the “inhibition of tumor growth and metastases in vivo” value [2] is given as “inhibits tumor growth and metastases in vivo”, the “activity in inhibiting tumor cell proliferation in vitro” value ([3]; compared with inhibition in vivo) is given as “much less active” and the “half-maximal inhibition of vascular endothelial cell proliferation at lower concentration than tumor cell proliferation” value ([3]; endothelial vs tumor cell proliferation) is given as 4 logs.

With `C=C1C(=O)O[C@@H]2[C@H]3C(C)=CC[C@@]34O[C@@]4(C)CC[C@@H]12` [Arglabin] the “% Weight Loss” value [4] was 2.69% and the “% Inhibition (ability to inhibit angiogenesis)” value (shortened to “% Inhibition”) [5] was 22.72%.

In the case of `C=C1C(=O)OC2C1CCC(=C)C1CC3OC3(C)C12` (stereo not drawn) [Astaphiatin], the “% Weight Loss” value [4] is reported as 6.92% and the “% Inhibition” value [5] is reported as 33.56%.

In the case of `CC(=O)O[C@@H]1/C=C/[C@](C)(O)C[C@@H](C)C/C=C/[C@H]2[C@@H]3O[C@]3(C)[C@@H](C)[C@H]3[C@H](Cc4ccccc4)NC(=O)[C@@]312` [Epoxycytochalasin-H], the “% Weight Loss” value [4] is reported as 2.46% and the “% Inhibition” value [5] is reported as 27.35%.

In the case of `CC1C2C(Cc3ccccc3)NC(=O)C2(O)C(CO)C2OC12C` (stereo not drawn) [Ozonolyzed Cytochalasin-E], the “% Weight Loss” value [4] is reported as 4.00% and the “% Inhibition” value [5] is reported as 20.00%.

With `C=C1C(C)C2C(Cc3ccccc3)NC(=O)C23OC(=O)/C=C/C(=O)CCCC(C)C/C=C/C3C1O` (stereo not drawn) [cytochalasin A] the “less active (inhibition of endothelial cell proliferation)” value [6] was 1000 fold.

With `CC1C/C=C/C2C3OC3(C)C(C)C3C(Cc4ccccc4)NC(=O)C23OC(=O)O/C=C/C(C)(O)C1=O` [cytochalasin E, (6S,7S,16R,18R)-6,7-epoxy-18-hydroxy-16-methyl-10-phenyl-21 ,23-dioxa-[13]cytochalasa-13(E), 19(E)-diene-1,17,22-trione] the “% Weight Loss” value [4] was 0.00%, the “Inhibition of Tumor Growth, T/C” value [7] was 0.28 and the “% Inhibition” value [5] was 45.00%. For the same compound, the “inhibition of bFGF driven corneal neovascularization” value [8] was 50%, the IC50 ([6]; Bos taurus, Endothelial cell, bFGF 1 ng/ml, 72 hours) was 0.002 ng/mL (≈ 0.00404 nM) and the inhibited tumor growth [9] was 74%.

In the case of `C=C1C(C)C2C(Cc3ccccc3)NC(=O)C23C(OC(C)=O)/C=C/C(C)(O)CC(C)C/C=C/C3C1O` (stereo not drawn) [cytochalasin H], the “less active (inhibition of endothelial cell proliferation)” value [6] is given as 1000 fold and the disaggregation of cells [10] is given as “produces disaggregation of cells”.

For `C[C@H]1C/C=C/[C@H]2[C@@H]3O[C@]3(C)[C@@H](C)[C@@H]3[C@H](Cc4ccccc4)NC(=O)[C@]32[C@H](O)/C=C/[C@](C)(O)C1` [epoxycytochalasin J], the “effectiveness as inhibitor of bovine capillary endothelial cell proliferation” value [11] was “even more effective inhibitor”.

For “bFGF: basic fibroblast growth factor (bFGF)”, the “mitogen for the tumor cells in vitro” value [12] is listed as “not a mitogen”.

For interferon alpha, the “inhibition of tumor-induced angiogenesis” value [13] is listed as “inhibit tumor-induced angiogenesis”.
